Laboratory results reported in paper PMC6934184, “Selective DNA-PKcs inhibition extends the therapeutic index of localized radiotherapy and chemotherapy” (The Journal of Clinical Investigation, 2019).

Molecular target: T1, YES1 (Homo sapiens, UniProt P07947)
T1 construct: purchased Thermo Fisher Scientific (Life Technologies) SelectScreen
Test: SelectScreen Z'LYTE
Assay type: biochemical
How it was run: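 SelectScreen broad panel; activity (Z'LYTE, Adapta) plus binding formats. ATP: Km app for CSF1R Z'LYTE; 10 for CAMK1 Adapta. Readout = % per kinase.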

T1 sequence (P07947 whole entry): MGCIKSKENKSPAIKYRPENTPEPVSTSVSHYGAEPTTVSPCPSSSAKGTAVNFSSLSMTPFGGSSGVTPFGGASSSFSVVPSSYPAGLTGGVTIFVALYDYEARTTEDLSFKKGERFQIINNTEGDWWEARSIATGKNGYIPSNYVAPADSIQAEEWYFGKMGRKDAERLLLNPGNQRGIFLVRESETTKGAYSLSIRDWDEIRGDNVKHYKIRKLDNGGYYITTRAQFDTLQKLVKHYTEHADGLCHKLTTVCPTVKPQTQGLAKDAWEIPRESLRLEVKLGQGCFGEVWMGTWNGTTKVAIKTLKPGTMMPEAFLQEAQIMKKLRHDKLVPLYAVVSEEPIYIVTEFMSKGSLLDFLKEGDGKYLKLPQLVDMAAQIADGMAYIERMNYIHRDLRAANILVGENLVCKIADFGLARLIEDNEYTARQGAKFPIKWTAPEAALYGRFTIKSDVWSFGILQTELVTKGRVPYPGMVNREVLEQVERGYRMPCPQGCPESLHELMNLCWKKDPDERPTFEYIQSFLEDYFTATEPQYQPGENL

CN(C(=O)CN1CCOCC1)c1ccc2sc3c(-c4cccc5c(=O)cc(N6CC7CCC(C6)O7)oc45)cccc3c2c1 [NU5455]
inhibition at 1 µM: 7.4%
